Measurements: the CheMixHub viscosity set
± gives the uncertainty stated by the source.

Assay: xn = mol fraction of the nth substance listed

OCCCl + CO
viscosity [mPa·s], 101.33 kPa
Settings	x1 = 0.096	x1 = 0.2122	x1 = 0.2939	x1 = 0.3927	x1 = 0.4944	x1 = 0.598	x1 = 0.6969	x1 = 0.7977	x1 = 0.8997
298.15 K	0.615 ± 0.017	0.777 ± 0.02	0.91 ± 0.023	1.099 ± 0.027	1.321 ± 0.032	1.591 ± 0.038	1.869 ± 0.043	2.13 ± 0.049	2.45 ± 0.056
303.15 K	0.572 ± 0.016	0.721 ± 0.019	0.834 ± 0.021	1.003 ± 0.025	1.195 ± 0.029	1.434 ± 0.034	1.632 ± 0.038	1.884 ± 0.044	2.14 ± 0.049
308.15 K	0.529 ± 0.015	0.662 ± 0.018	0.767 ± 0.02	0.913 ± 0.023	1.084 ± 0.027	1.287 ± 0.031	1.456 ± 0.035	1.675 ± 0.039	1.89 ± 0.044

OCCCl + CCCCCCO
viscosity [mPa·s], 101.33 kPa
Settings	x1 = 0.097	x1 = 0.1953	x1 = 0.2962	x1 = 0.3953	x1 = 0.5314	x1 = 0.5962	x1 = 0.7121	x1 = 0.7968	x1 = 0.8982
298.15 K	3.93 ± 0.087	3.7 ± 0.082	3.544 ± 0.079	3.406 ± 0.076	3.241 ± 0.073	3.175 ± 0.071	3.057 ± 0.069	2.983 ± 0.067	2.921 ± 0.066
303.15 K	3.33 ± 0.074	3.18 ± 0.071	3.068 ± 0.069	2.909 ± 0.066	2.78 ± 0.063	2.718 ± 0.062	2.615 ± 0.059	2.551 ± 0.058	2.529 ± 0.058
308.15 K	2.824 ± 0.064	2.68 ± 0.061	2.572 ± 0.058	2.494 ± 0.057	2.38 ± 0.054	2.329 ± 0.053	2.276 ± 0.052	2.237 ± 0.051	2.208 ± 0.051

O=S(=O)([O-])[O-].[NH4+].[NH4+] + O
viscosity [mPa·s], 101 kPa
Settings	298.15 K	308.15 K	318.15 K
x1 = 0.008901	0.9796 ± 0.032	0.8523 ± 0.028	0.7339 ± 0.025
x1 = 0.01765	1.709 ± 0.052	1.427 ± 0.044	1.231 ± 0.039

CN1CCC[C@H]1c1cccnc1 + CCO
viscosity [mPa·s], 101.33 kPa
Settings	298.15 K	323.15 K
x1 = 0.0501	1.468 ± 0.015	0.8557 ± 0.0086
x1 = 0.1104	1.756 ± 0.018	1.03 ± 0.01
x1 = 0.1524	1.941 ± 0.019	1.123 ± 0.011
x1 = 0.2923	2.477 ± 0.025	1.376 ± 0.014
x1 = 0.3425	2.652 ± 0.027	1.482 ± 0.015
x1 = 0.4474	3.004 ± 0.03	1.703 ± 0.017
x1 = 0.4676	3.008 ± 0.03	1.764 ± 0.018
x1 = 0.5898	3.224 ± 0.032	1.784 ± 0.018
x1 = 0.6839	3.497 ± 0.035	1.88 ± 0.019
x1 = 0.7725	3.564 ± 0.036	1.961 ± 0.02
x1 = 0.8957	3.801 ± 0.038	2.026 ± 0.02
x1 = 0.8976	3.803 ± 0.038	2.026 ± 0.02

CN1CCC[C@H]1c1cccnc1 + OCCCO
100 kPa
Settings	viscosity [mPa·s]
293.15 K, x1 = 0.5	33.15 ± 0.72
293.15 K, x1 = 0.6004	22.75 ± 0.49
293.15 K, x1 = 0.8	9.805 ± 0.21
298.15 K, x1 = 0.8	8.105 ± 0.17
303.15 K, x1 = 0.6004	13.95 ± 0.3
308.15 K, x1 = 0.7	7.885 ± 0.17
313.15 K, x1 = 0.9	3.625 ± 0.076
323.15 K, x1 = 0.3	13.05 ± 0.29

NC=O + CCCCn1cc[n+](C)c1.F[B-](F)(F)F
101 kPa
Settings	viscosity [mPa·s]
293.15 K, x2 = 0.7588	71.35 ± 2.4
303.15 K, x2 = 0.5095	21.65 ± 0.68

NC=O + CC(C)CO
308 K, 101 kPa
Settings	viscosity [mPa·s]
x1 = 0.1092	2.344
x1 = 0.2053	2.444
x1 = 0.3677	2.574
x1 = 0.4992	2.682
x1 = 0.6079	2.757
x1 = 0.6993	2.788
x1 = 0.7772	2.782
x1 = 0.844	2.744
x1 = 0.9029	2.701

CCN(CC)CC(=O)Nc1c(C)cccc1C + CC(C)[C@@H]1CC[C@@H](C)C[C@H]1O
100 kPa, x2 = 0.667
Settings	viscosity [mPa·s]
293.15 K	69.38 ± 1.9
298.15 K	45.91 ± 1.2
303.15 K	31.73 ± 0.83
308.15 K	22.78 ± 0.58
313.15 K	16.87 ± 0.42
318.15 K	12.85 ± 0.31
323.15 K	10.02 ± 0.24

NC=O + CC(=O)N(C)C
viscosity [mPa·s], 101 kPa
Settings	298.15 K	308.15 K	318.15 K
x2 = 0.035	3.217 ± 0.14	2.532 ± 0.12	2.077 ± 0.096
x2 = 0.07	3.457 ± 0.15	2.677 ± 0.12	2.18 ± 0.1
x2 = 0.111	3.656 ± 0.16	2.847 ± 0.13	2.286 ± 0.11
x2 = 0.15	3.822 ± 0.17	2.95 ± 0.13	2.357 ± 0.11
x2 = 0.2053	3.966 ± 0.18	3.037 ± 0.14	2.416 ± 0.11
x2 = 0.2414	3.971 ± 0.18	3.057 ± 0.14	2.42 ± 0.11
x2 = 0.3009	3.932 ± 0.17	3.027 ± 0.14	2.389 ± 0.11
x2 = 0.3563	3.789 ± 0.17	2.92 ± 0.13	2.31 ± 0.11
x2 = 0.4177	3.537 ± 0.16	2.741 ± 0.12	2.16 ± 0.1
x2 = 0.458	3.338 ± 0.15	2.594 ± 0.12	2.076 ± 0.096
x2 = 0.5011	3.094 ± 0.14	2.43 ± 0.11	1.953 ± 0.091
x2 = 0.5474	2.826 ± 0.13	2.235 ± 0.1	1.81 ± 0.085
x2 = 0.5912	–	2.028 ± 0.094	–
x2 = 0.5972	2.53 ± 0.12	–	1.65 ± 0.078
x2 = 0.65	2.251 ± 0.1	1.812 ± 0.085	1.505 ± 0.072
x2 = 0.7092	1.916 ± 0.089	1.579 ± 0.075	1.316 ± 0.063
x2 = 0.75	1.72 ± 0.081	1.441 ± 0.069	1.205 ± 0.059
x2 = 0.7948	1.54 ± 0.073	1.289 ± 0.062	1.096 ± 0.054
x2 = 0.891	1.21 ± 0.059	1.035 ± 0.051	0.901 ± 0.045
